Laboratory results reported in patent publication US20240207410A1, “STABILIZED LIQUID COMPOSITIONS COMPRISING A LEVODOPA-TYROSINE CONJUGATE AND USES THEREOF” (NeuroDerm, Ltd., priority 2021, published 2024).
Where a SMILES comes first, the peptide text is derived from it. [ ]: non-standard residue; d: D form. Dopa = N[C@@H](Cc1ccc(O)c(O)c1)C(=O)O

Key:
Minipig/Göttingen = assay: Local safety, 24-hour SC infusion; assay type: in vivo
Protocol: In vivo non-clinical safety studies were conducted in both the rat and minipig. Additionally, an assessment of the local infusion site reaction of LD-Tyr was performed as part of a PK study in domestic pigs.

red blood cells (RBC) = assay: Blood/plasma ratio, partitioning into red blood cells, human blood ex vivo; assay type: in vitro ADME; conditions: human blood
[1] = Long-term stability of 30% LD-Tyrosine/0.75% carbidopa at 2-8° C.; assay type: physicochemical
Protocol: The formulation also included 0.5% ascorbic acid (Asc), 0.5% N-acetyl cysteine (NAC) and 0.3% Tween 80. The formulation was stored at 2-8° C. for the time indicated, and % recovery and % LD-Tyr-DKP formation (an impurity) were tested. Percent recovery remained high over time. The DKP impurity accumulated over time.

[2] = Effect of various additives on stability of a 20% LD-Tyrosine-L-Arginine based formulation; assay type: physicochemical

Structure (SMILES): N[C@@H](Cc1ccc(O)c(O)c1)C(=O)N[C@@H](Cc1ccc(O)cc1)C(=O)O [LD-Tyr, levodopa-tyrosine (LD-Tyr) conjugate of the formula (II)] (H-[Dopa]-Tyr-OH)
- subchronic/chronic inflammation in the subcutis (Minipig/Göttingen; study 0NMR6, 120 mg/mL at 4.5 mL (540 mg/day)): minimal to mild
- tolerability (local effect, cutaneous ulcers) (Minipig/Göttingen; study 0NMR6, 24-hour SC infusion, 120 mg/mL at 4.5 mL (540 mg/day)): well tolerated with no
- chronic inflammation in the subcutis (Minipig/Göttingen; study 0NMR10, 130 mg/mL at 6 mL (780 mg/day)): minimal to moderate
- tolerability (local effect, cutaneous ulcers) (Minipig/Göttingen; study 0NMR10, 24-hour SC infusion, 130 mg/mL at 6 mL (780 mg/day)): well tolerated with no
- tolerability (local effect, cutaneous ulcers) (Minipig/Göttingen; study E0515, 24-hour SC infusion, 440, 370, 300, and 250 mg/mL (2640, 2775, 2700, and 2250 mg/day)): well tolerated with no
- RBC binding (red blood cells (RBC)): no RBC binding
- KRBC/PL (red blood cells (RBC); all measured): below one
- % DKP ([1]; 1 month): 1.88 % area
- mg/mL (concentration in formulation) ([1]; 1 month): 295.74 mg/mL
- % DKP ([1]; 1 week): 0.99 % area
- mg/mL (concentration in formulation) ([1]; 1 week): 294.13 mg/mL
- % DKP ([1]; 2 months): 2.60 % area
- mg/mL (concentration in formulation) ([1]; 2 months): 302.47 mg/mL
- % DKP ([1]; 2 weeks): 1.19 % area
- mg/mL (concentration in formulation) ([1]; 2 weeks): 304.25 mg/mL
- % DKP ([1]; 3 months): 4.04 % area
- mg/mL (concentration in formulation) ([1]; 3 months): 296.57 mg/mL
- % DKP ([1]; t = 0): 0.86 % area
- mg/mL (concentration in formulation) ([1]; t = 0): 297.62 mg/mL
- solubility of the LD-Tyr (rank order of cosolvents) [2]: DMA>Ethanol>PEG 300
